Our source for the IC50 and Displacement values is ChEMBL document CHEMBL1125608, “Synthesis and biological activity of angiotensin II analogues containing a Val-His replacement, Val psi[CH(CONH2)NH]His” (J Med Chem, 1991).

The species entered for one assay is Cavia porcellus. The assay is described as follows: The compound was tested for its inhibitory activity as antagonist of AI on guinea pig ileum. Format: functional, organism-based.
For assay [1], the target named is Angiotensin II receptor (Cavia porcellus). The assay is described as follows: Inhibitory activity as antagonist of AII on guinea pig ileum.
The subject of assay [2] is Angiotensin II receptor (Oryctolagus cuniculus). The assay is described as follows: Displacement of [3H]Angiotensin II (300 ng/mL) from rabbit adrenal cortex. On the technique in general: Displacement assays read how much labelled ligand stays bound in the presence of the test substance.
Assay [3] deals with Angiotensin II receptor (Cavia porcellus). Description: The compound was tested for its inhibitory activity as antagonist of AII on guinea pig ileum.

SMILES strings stand for the structures. Peptide text beside a SMILES is read from it. * marks the point of attachment. Propanoyl(3-(4-MeO-Ph)) = COc1ccc(CCC(=O)*)cc1; Desaminotyrosyl = O=C(CCc1ccc(O)cc1)*; Cbz = O=C(OCc1ccccc1)*

Usually IC50 stands for the concentration that gives 50% inhibition. A lower IC50 goes with inhibition by little substance.

On to `CC[C@H](C)[C@H](NC(=O)[C@H](Cc1ccc(O)cc1)NC(=O)[C@@H](NC(=O)[C@H](CCCN=C(N)N)NC(=O)CNC)C(C)C)C(=O)N[C@@H](Cc1c[nH]cn1)C(=O)N1CCC[C@H]1C(=O)N[C@@H](C)C(=O)O`, for which the IC50 in the assay listed under Cavia porcellus stood at 0.56 nM.
In turn, `CC[C@H](C)[C@H](NC(=O)[C@@H]1CCCN1C(=O)[C@H](Cc1c[nH]cn1)NC(=O)[C@@H](NC(=O)[C@H](Cc1ccc(O)cc1)NC(=O)[C@@H](NC(=O)[C@H](CCCN=C(N)N)NC(=O)CNC)C(C)C)[C@@H](C)CC)C(=O)O` yielded an IC50 in the assay listed under Cavia porcellus of 0.17 nM.
In the case of `CC[C@H](C)[C@H](NC(=O)[C@@H]1CCCN1C(=O)[C@H](Cc1c[nH]cn1)NC(=O)[C@@H](NC(=O)CCc1ccc(O)cc1)C(C)C)C(=O)O` (Desaminotyrosyl-VHPI-OH), the half-inhibitory concentration (IC50) (in assay [1]; in the assay listed under Cavia porcellus) was more than 15000 nM each time. In assay [2], this molecule registered a Displacement of 0%.
Consider `CC[C@H](C)[C@H](NC(=O)[C@@H]1CCCN1C(=O)[C@H](Cc1c[nH]cn1)N[C@H](C(N)=O)[C@@H](NC(=O)[C@H](Cc1ccc(O)cc1)NC(=O)[C@@H](NC(=O)[C@H](CCCN=C(N)N)NC(=O)CNC)C(C)C)C(C)C)C(=O)O`, for which the results for the IC50 (in assay [1]; in the assay listed under Cavia porcellus) were 330 nM and 345 nM, respectively.
For the molecule `CC[C@H](C)[C@H](NC(=O)[C@@H]1CCCN1C(=O)[C@H](Cc1c[nH]cn1)NC(=O)[C@@H](NC(=O)OCc1ccccc1)C(C)C)C(=O)O` (Cbz-VHPI-OH), the IC50 (in assay [1]; in the assay listed under Cavia porcellus) was more than 15000 nM throughout. Besides, the Displacement in assay [2] amounted to 10%.
In the case of `CNCC(=O)N[C@@H](CCCNC(=N)N)C(=O)N[C@H](C(=O)N[C@@H](Cc1ccc(O)cc1)C(=O)N[C@H](C(=O)N[C@@H](Cc1cnc[nH]1)C(=O)N1CCC[C@H]1C(=O)N[C@@H](C)C(=O)O)C(C)C)C(C)C` [SARALASIN], the 50% inhibitory concentration (IC50) in the assay filed under Cavia porcellus was 0.048 nM.
For the molecule `CC[C@H](C)[C@H](NC(=O)[C@@H]1CCCN1C(=O)[C@H](Cc1c[nH]cn1)NC(=O)[C@@H](NC(=O)[C@H](Cc1ccc(O)cc1)NC(=O)[C@@H](NC(=O)[C@H](CCCN=C(N)N)NC(=O)CNC)C(C)C)C(C)C)C(=O)O`, the IC50 in assay [1] was 0.45 nM; in the assay filed under Cavia porcellus it was 0.51 nM. The molecule also yielded a Displacement in assay [2] of 100%.
In the case of `CC[C@H](C)[C@H](NC(=O)[C@@H]1CCCN1C(=O)[C@H](Cc1c[nH]cn1)NC(C(N)=O)[C@@H](NC(=O)OCc1ccccc1)C(C)C)C(=O)O` (some centres undefined), the IC50 (in assay [3]; in the assay filed under Cavia porcellus) was more than 15000 nM in each case.
Turning to `CC[C@H](C)[C@H](NC(=O)[C@@H]1CCCN1C(=O)[C@H](Cc1c[nH]cn1)NC(=O)[C@@H](NC(=O)CCc1ccc(OC)cc1)C(C)C)C(=O)O` ({Propanoyl(3-(4-MeO-Ph))}-VHPI-OH), the IC50 (in assay [1]; in the assay filed under Cavia porcellus) was more than 15000 nM throughout. The Displacement in assay [2] worked out at 0%.
